Reference: patent publication US6399542B1, “Alkoxyimino-substituted bicyclic compounds compositions containing the same and method of making such compounds” (Agro-Kanesho Co., Ltd., priority 1997, dated 2002)

test system: Psecidoperonospora cubensis; experiment: Effect on Cucumber downy mildew (preventive spray test); format: in vivo; conditions: conc. of active ingredient 4 ppm, 7 days after inoculation

First: CON=C(C(=O)OC)c1ccccc1COc1cc2c(cc1C)C(=NOC)C(C)C2 (single isomer, unassigned) [f-9]
Second: CNC(=O)/C(=N/OC)c1ccccc1COc1ccc2c(c1C)OCC2=NOCC#N [a-49]
The “Preventive rate (%)” value of the first is higher: 100% for the first, 88% for the second.

same assay, conditions: conc. of active ingredient 20 ppm, 7 days after inoculation

First: CCc1cc2c(cc1OCc1ccccc1/C(=N\OC)C(=O)OC)OCC2=NOC (single isomer, unassigned) [a-29]
Second: CCc1cc2c(cc1OCc1ccccc1/C(=N\OC)C(=O)NC)OCC2=NOC [a-32]
The “Preventive rate (%)” value of the first is higher: 97% for the first, 81% for the second.

`CON=C(C(=O)OC)c1ccccc1COc1cc2c(cc1C)C(=NOC)C(C)C2` (single isomer, unassigned) [f-9] and `CON=C(C(=O)OC)c1ccccc1COc1cc2c(cc1C)C(=NOC)CCO2` [c-26] are the same in “Preventive rate (%)” value: 100% for the first, 100% for the second.

`CO/N=C(/C(=O)OC)c1ccccc1COc1ccc2c(c1C)OCC2=NOCC#N` [a-48] and `CNC(=O)/C(=N/OC)c1ccccc1COc1ccc2c(c1C)OCC2=NOCC#N` [a-49] are the same in “Preventive rate (%)” value: 100% for the first, 100% for the second.

Compared with `C/C=C/CON=C1COc2c1ccc(OCc1ccccc1/C(=N\OC)C(=O)NC)c2C` [a-65], `CNC(=O)/C(=N/OC)c1ccccc1COc1ccc2c(c1C)OCC2=NOCc1ccccc1` [a-73] is lower in “Preventive rate (%)” value: 94% for the first, 88% for the second.

Going from `CON=C1CCOc2cc(OCc3ccccc3N(OC)C(=O)OC)ccc21` [c-7] to `CON=C(C(=O)OC)c1ccccc1COc1ccc2c(c1C)CCC2=NOC` [e-15], the “Preventive rate (%)” value rises from 94% to 95%.

Compared with `CON=C(C(=O)OC)c1ccccc1COc1ccc2c(c1C)CCC2=NOCC=CCl` [e-57], `C#CCON=C1CCc2c1ccc(OCc1ccccc1C(=NOC)C(=O)OC)c2C` [e-60] is lower in “Preventive rate (%)” value: 94% for the first, 88% for the second.

same assay, conditions: conc. of active ingredient 100 ppm, 7 days after inoculation

`CCc1cc2c(cc1OCc1ccccc1/C(=N\OC)C(=O)OC)OCC2=NOC` (single isomer, unassigned) [a-29] and `CCc1cc2c(cc1OCc1ccccc1/C(=N\OC)C(=O)NC)OCC2=NOC` [a-32] are the same in “Preventive rate (%)” value: 97% for the first, 97% for the second.

`CON=C(C(=O)OC)c1ccccc1COc1cc2c(cc1C)C(=NOC)C(C)C2` (single isomer, unassigned) [f-9] and `CON=C(C(=O)OC)c1ccccc1COc1cc2c(cc1C)C(=NOC)CCO2` [c-26] are the same in “Preventive rate (%)” value: 100% for the first, 100% for the second.

`CO/N=C(/C(=O)OC)c1ccccc1COc1ccc2c(c1C)OCC2=NOCC#N` [a-48] and `CNC(=O)/C(=N/OC)c1ccccc1COc1ccc2c(c1C)OCC2=NOCC#N` [a-49] are the same in “Preventive rate (%)” value: 100% for the first, 100% for the second.

Going from `C/C=C/CON=C1COc2c1ccc(OCc1ccccc1/C(=N\OC)C(=O)NC)c2C` [a-65] to `CNC(=O)/C(=N/OC)c1ccccc1COc1ccc2c(c1C)OCC2=NOCc1ccccc1` [a-73], the “Preventive rate (%)” value falls from 100% to 88%.

`CON=C1CCOc2cc(OCc3ccccc3N(OC)C(=O)OC)ccc21` [c-7] and `CON=C(C(=O)OC)c1ccccc1COc1ccc2c(c1C)CCC2=NOC` [e-15] are the same in “Preventive rate (%)” value: 100% for the first, 100% for the second.

`CON=C(C(=O)OC)c1ccccc1COc1ccc2c(c1C)CCC2=NOCC=CCl` [e-57] and `C#CCON=C1CCc2c1ccc(OCc1ccccc1C(=NOC)C(=O)OC)c2C` [e-60] are the same in “Preventive rate (%)” value: 100% for the first, 100% for the second.

test system: Puccinia recondita; experiment: Effect on Wheat brown rust (preventive spray test); format: in vivo; conditions: conc. of active ingredient 4 ppm, 7 days after inoculation

`CO/N=C(/C(=O)OC)c1ccccc1COc1ccc2c(c1C)OCC2=NOCC#N` [a-48] and `CNC(=O)/C(=N/OC)c1ccccc1COc1ccc2c(c1C)OCC2=NOCC#N` [a-49] are the same in “Preventive rate (%)” value: 100% for the first, 100% for the second.

`CNC(=O)/C(=N/OC)c1ccccc1COc1ccc2c(c1C)OCC2=NOCC(=O)OC` [a-54] and `CO/N=C(/C(=O)OC)c1ccccc1COc1ccc2c(c1C)OCC2=NOCC=C(C)C` [a-66] are the same in “Preventive rate (%)” value: 100% for the first, 100% for the second.

First: CNC(=O)/C(=N/OC)c1ccccc1COc1ccc2c(c1C)OCC2=NOCc1ccccc1 [a-73]
Second: CNC(=O)/C(=N/OC)c1ccccc1COc1ccc2c(c1C)OCC2=NOCc1ccc(Cl)c(Cl)c1 [a-79]
The “Preventive rate (%)” value of the first is higher: 100% for the first, 98% for the second.

First: CO/N=C(/C(=O)OC)c1ccccc1COc1ccc2c(c1C)OCC2=NOCc1ccc(Cl)c(Cl)c1 [a-78]
Second: CCc1c(OCc2ccccc2C(=NOC)C(=O)OC)ccc2c1OCCC2=NOC [c-29]
The “Preventive rate (%)” value of the first is lower: 95% for the first, 96% for the second.

same assay, conditions: conc. of active ingredient 20 ppm, 7 days after inoculation

`CO/N=C(/C(=O)OC)c1ccccc1COc1ccc2c(c1C)OCC2=NOCC#N` [a-48] and `CNC(=O)/C(=N/OC)c1ccccc1COc1ccc2c(c1C)OCC2=NOCC#N` [a-49] are the same in “Preventive rate (%)” value: 100% for the first, 100% for the second.

`CNC(=O)/C(=N/OC)c1ccccc1COc1ccc2c(c1C)OCC2=NOCC(=O)OC` [a-54] and `C/C=C/CON=C1COc2c1ccc(OCc1ccccc1/C(=N\OC)C(=O)NC)c2C` [a-65] are the same in “Preventive rate (%)” value: 100% for the first, 100% for the second.

`CO/N=C(/C(=O)OC)c1ccccc1COc1ccc2c(c1C)OCC2=NOCC=C(C)C` [a-66] and `CO/N=C(/C(=O)OC)c1ccccc1COc1ccc2c(c1C)OCC2=NOCc1ccc(Cl)c(Cl)c1` [a-78] are the same in “Preventive rate (%)” value: 100% for the first, 100% for the second.

First: CNC(=O)/C(=N/OC)c1ccccc1COc1ccc2c(c1C)OCC2=NOCc1ccccc1 [a-73]
Second: CNC(=O)/C(=N/OC)c1ccccc1COc1ccc2c(c1C)OCC2=NOCc1ccc(Cl)c(Cl)c1 [a-79]
The “Preventive rate (%)” value of the first is higher: 100% for the first, 98% for the second.

Compared with `CON=C1CCOc2cc(OCc3ccccc3N(OC)C(=O)OC)ccc21` [c-7], `CON=C(C(=O)OC)c1ccccc1COc1cc2c(cc1C)C(=NOC)CCO2` [c-26] is lower in “Preventive rate (%)” value: 99% for the first, 98% for the second.

Compared with `CCc1c(OCc2ccccc2C(=NOC)C(=O)OC)ccc2c1OCCC2=NOC` [c-29], `CON=C(C(=O)OC)c1ccccc1COc1ccc2c(c1C)CCC2=NOC` [e-15] is lower in “Preventive rate (%)” value: 100% for the first, 98% for the second.

same assay, conditions: conc. of active ingredient 100 ppm, 7 days after inoculation

`CO/N=C(/C(=O)OC)c1ccccc1COc1ccc2c(c1C)OCC2=NOCC#N` [a-48] and `CNC(=O)/C(=N/OC)c1ccccc1COc1ccc2c(c1C)OCC2=NOCC#N` [a-49] are the same in “Preventive rate (%)” value: 100% for the first, 100% for the second.

`CNC(=O)/C(=N/OC)c1ccccc1COc1ccc2c(c1C)OCC2=NOCC(=O)OC` [a-54] and `C/C=C/CON=C1COc2c1ccc(OCc1ccccc1/C(=N\OC)C(=O)NC)c2C` [a-65] are the same in “Preventive rate (%)” value: 100% for the first, 100% for the second.

`CO/N=C(/C(=O)OC)c1ccccc1COc1ccc2c(c1C)OCC2=NOCC=C(C)C` [a-66] and `CO/N=C(/C(=O)OC)c1ccccc1COc1ccc2c(c1C)OCC2=NOCc1ccc(Cl)c(Cl)c1` [a-78] are the same in “Preventive rate (%)” value: 100% for the first, 100% for the second.

`CNC(=O)/C(=N/OC)c1ccccc1COc1ccc2c(c1C)OCC2=NOCc1ccccc1` [a-73] and `CNC(=O)/C(=N/OC)c1ccccc1COc1ccc2c(c1C)OCC2=NOCc1ccc(Cl)c(Cl)c1` [a-79] are the same in “Preventive rate (%)” value: 100% for the first, 100% for the second.

Going from `CON=C1CCOc2cc(OCc3ccccc3N(OC)C(=O)OC)ccc21` [c-7] to `CON=C(C(=O)OC)c1ccccc1COc1cc2c(cc1C)C(=NOC)CCO2` [c-26], the “Preventive rate (%)” value falls from 100% to 99%.

Going from `CCc1c(OCc2ccccc2C(=NOC)C(=O)OC)ccc2c1OCCC2=NOC` [c-29] to `CON=C(C(=O)OC)c1ccccc1COc1ccc2c(c1C)CCC2=NOC` [e-15], the “Preventive rate (%)” value falls from 100% to 99%.

test system: Erysiphe graminis; experiment: Effects on Barley powdery mildew (preventive spray test); format: in vivo; conditions: conc. of active ingredient 4 ppm, lesions counted seven days after inoculation

With `CNC(=O)/C(=N/OC)c1ccccc1COc1ccc2c(c1C)OCC2=NOCc1ccccc1` [a-73] the “Preventive rate (%)” value was 98%.

same assay, conditions: conc. of active ingredient 20 ppm, lesions counted seven days after inoculation

Compared with `CNC(=O)/C(=N/OC)c1ccccc1COc1ccc2c(c1C)OCC2=NOCc1ccccc1` [a-73], `CCc1c(OCc2ccccc2C(=NOC)C(=O)OC)ccc2c1OCCC2=NOC` [c-29] is lower in “Preventive rate (%)” value: 100% for the first, 95% for the second.

same assay, conditions: conc. of active ingredient 100 ppm, lesions counted seven days after inoculation

First: CNC(=O)/C(=N/OC)c1ccccc1COc1ccc2c(c1C)OCC2=NOCc1ccccc1 [a-73]
Second: CCc1c(OCc2ccccc2C(=NOC)C(=O)OC)ccc2c1OCCC2=NOC [c-29]
The “Preventive rate (%)” value of the first is higher: 100% for the first, 99% for the second.

test system: Phytophthora infestans; experiment: not given; format: in vivo; conditions: Tomato late blight; conc. of active ingredient 20 ppm; 5 days after inoculation

Compared with `CON=C(C(=O)OC)c1ccccc1COc1cc2c(cc1C)C(=NOC)C(C)C2` (single isomer, unassigned) [f-9], `CO/N=C(/C(=O)OC)c1ccccc1COc1ccc2c(c1C)OCC2=NOCC#N` [a-48] is lower in “Preventive rate (%)” value: 93% for the first, 81% for the second.

Going from `CCc1cc2c(cc1OCc1ccccc1/C(=N\OC)C(=O)NC)OCC2=NOC` [a-32] to `CNC(=O)/C(=N/OC)c1ccccc1COc1ccc2c(c1C)OCC2=NOCC#N` [a-49], the “Preventive rate (%)” value falls from 98% to 97%.

In the case of `C/C=C/CON=C1COc2c1ccc(OCc1ccccc1/C(=N\OC)C(=O)NC)c2C` [a-65], the “Preventive rate (%)” value is reported as 97%.

same assay, conditions: Tomato late blight; conc. of active ingredient 100 ppm; 5 days after inoculation

First: CON=C(C(=O)OC)c1ccccc1COc1cc2c(cc1C)C(=NOC)C(C)C2 (single isomer, unassigned) [f-9]
Second: CO/N=C(/C(=O)OC)c1ccccc1COc1ccc2c(c1C)OCC2=NOCC#N [a-48]
The “Preventive rate (%)” value of the first is higher: 98% for the first, 94% for the second.

Compared with `CCc1cc2c(cc1OCc1ccccc1/C(=N\OC)C(=O)NC)OCC2=NOC` [a-32], `CNC(=O)/C(=N/OC)c1ccccc1COc1ccc2c(c1C)OCC2=NOCC#N` [a-49] is higher in “Preventive rate (%)” value: 91% for the first, 97% for the second.

`C/C=C/CON=C1COc2c1ccc(OCc1ccccc1/C(=N\OC)C(=O)NC)c2C` [a-65] was tested, and the “Preventive rate (%)” value was 100%.
